Measurements published in patent publication US20060269482A1 (priority 2005, published 2006).
Like-named read-outs stand apart in the source and are kept apart here.

Experiments:
MTLn3 cells = assay: cell growth inhibition in rat tumor cell line; assay type: cell-based
[1] = Plasma and tumor exposures after a single oral dose; assay type: in vivo, rat
Method: Female Fischer rats obtained from Charles River Laboratories were used when they were ˜13-15 weeks old and weighed ˜150 grams. All animals were examined prior to the initiation of studies to ensure that they were healthy and acclimated to the laboratory environment. Autoclaved water and irradiated food were provided ad libitum, and the animals were maintained in a 12 hour light and dark cycle.
The test compound COMPOUND A, [4-amino-2-(1-methanesulfonylpiperidin-4-ylamino) pyrimidin-5-yl]-(2,3-difluoro-6-methoxyphenyl)methanone, was synthesized by Discovery Chemistry, Hoffmann-La Roche Inc. COMPOUND A was formulated as a suspension in 1% Klucel LF with 0.1% Tween 80 for oral injection. Compound was stored at 4° C. and vortexed immediately prior to administration.
The dose selected was 80 mg/kg, determined to be an efficacious dose in this animal model. Tumor growth inhibition in the MTLn3 xenograft model after 2 to 3 weeks of oral dosing at 80 mg/kg once weekly averaged 90% with 2/10 complete regressions. COMPOUND A was dosed on day 10 post implantation of cells, at which time the tumors were 100-200 mm^3 in size. In this pharmacokinetic/pharmacodynamic experiment, plasma and tumors were collected at 1, 2, 6, 24 and 72 hours post dosing of a single oral dose of COMPOUND A. Tumors were removed and immediately snap frozen in liquid nitrogen and stored at −80° C. until drug concentration analysis. Untreated and vehicle treated control groups were included in the analysis. Concentrations of COMPOUND A in plasma and tumors were determined in the same three animals per time point. Whole blood was also collected for analysis of Rb phosphorylation. Peripheral blood mononuclear cells (PBMCs) were isolated, stimulated ex vivo with mitogen and analyzed by Western blot as described below.
In a second pharmacodynamic study, plasma concentrations of COMPOUND A were similarly analyzed as described above, and Rb phosphorylation in both PBMCs and tumor xenografts treated with a single oral dose of COMPOUND A was examined.
After a single oral dose of 80 mg/kg, plasma and tumor tissues show a similar concentration time profile of COMPOUND A. Maximum concentrations in both plasma and tumor tissue were observed 1 hr post dose. The concentrations in the tumor samples taken from the same animals were approximately 50% of the plasma concentration and at 24 hrs tumor drug levels (164±28 ng/g) approximated plasma exposures at 24 hours (250±74 ng/ml) (FIG. 7). Drug levels in plasma and tumor tissue were measurable up to 24 hrs after dosing in all the animals in PD 664 (3 rats per time point). […] Overall the plasma data seem fairly predictive for tumor concentrations particularly since the extraction of drug from the tumor samples might be less than complete. No drug was detectable in the vehicle group.
Similarly in PD 675, after a single 80 mg/kg oral dose of COMPOUND A, drug was measurable in all the animals up to 6 hrs (339±88 ng/ml) and in ⅔ animals 24 hr and 48 hr after dosing. Mean plasma concentrations were steady from 1-24 hr. No drug was detectable in the vehicle group.

[2] = test system: Rb phosphorylation in human PBMCs; assay: Rb phosphorylation in human PBMCs treated ex vivo; assay type: cell-based; conditions: PMA stimulated, 0.2 to 2.0 μM, Western blot
Method: Approximately 10 mls of blood was collected from five healthy human volunteers into sodium heparin treated Vacutainer blood collection tubes by Employee Health Services. PBMCs were separated using the Lymphocyte Separation Medium (LSM) and protocol supplied by ICN Biomedicals Inc. (Costa Mesa, Calif.). Briefly whole blood was diluted 1:1 with cold HBSS (Hanks Balanced Salt Solution), layered onto the LSM and centrifuged. The band of mononuclear cells above the LSM was collected, transferred to a new tube and washed once with cold HBSS. Cells were resuspended in RPMI 1640, 10% HI-FBS, 2 mM L-glutamine and 0.01 mg/ml Gentamicin Reagent Solution (GIBCO/Invitrogen). […]
PBMCs were collected by transferring the cells, including attached cells and those in suspension, into 50 ml tubes. […] Samples were sonicated on ice for 30 seconds, clarified by centrifugation at 16,000×g for 10 minutes at 4° C. and protein concentrations determined using Non-Interfering Protein Assay Kit (Geno Technology Incorporated, Maplewood, Mo.). […] For Western blotting, total Rb was detected using antibody from Pharmingen (BD Bioscience, San Diego, Calif.) at a dilution of 1:2000. Lysates were analysed by Western blotting for Rb phosphorylation using polyclonal antibodies against phosphorylated serine 795, serine 780, threonine 821 and serine 807/811 in human Rb (FIG. 8). […]

[3] = single oral dose 80 mg/kg, rat, PD 664

IC50 (MTLn3 cells): 170 nM | IC90 (MTLn3 cells): 240 nM | concentration at 6 h ([1]; female, Fischer, rat, plasma, single 80 mg/kg oral dose, PD 675, 6 hrs): 339 ± 88 ng/mL | concentration at 24 h ([1]; female, Fischer, rat, plasma, single oral dose 80 mg/kg, 24 hours, PD 664, read-out: Plasma exposure at 24 hours): 250 ± 74 ng/mL | concentration at 72 h ([1]; female, Fischer, rat, plasma, single oral dose 80 mg/kg, PD 664, one out of three animals measurable): ≥ 12.5 ng/mL | Kp ([1]; female, Fischer, rat, tumor / plasma, single oral dose 80 mg/kg, same animals, PD 664, read-out: Tumor concentration as percent of plasma concentration): ~0.5 | concentration at 24 h ([1]; female, Fischer, rat, tumor, single oral dose 80 mg/kg, 24 hrs, PD 664, read-out: Tumor drug level at 24 hrs): 164 ± 28 ng/g | Time up to which drug levels in plasma and tumor tissue were measurable in all animals ([1]; single oral dose 80 mg/kg, PD 664, 3 rats per time point): up to 24 hrs | Time of maximum concentration in plasma [1, 3]: 1 h | Time of maximum concentration in tumor tissue [1, 3]: 1 h
SMILES: COc1ccc(F)c(F)c1C(=O)c1cnc(NC2CCN(S(C)(=O)=O)CC2)nc1N [COMPOUND A, [4-amino-2-(1-methanesulfonylpiperidin-4-ylamino)pyrimidin-5-yl]-(2,3-difluoro-6-methoxyphenyl)methanone]
Rb phosphorylation at the serine 807/811 site ([2]; human PBMCs of two donors): complete inhibition of phosphorylation | Rb phosphorylation at the threonine 821 site ([2]; human PBMCs, 24 hours incubation): not inhibited at any concentration
